Source: US6162810A, “Inadone and tetralone compounds for inhibiting cell proliferation” (The Regents of the University of California, priority 1998, dated 2000)
Like-named read-outs stand apart in the source and are kept apart here.

Key:
[1] = system: CEM WT, CEM AB9228, MOLT-4, Jurkat, NALL-1, WI-L2, K562, and HL-60 cells; test: Cytotoxicity to various proliferating cell lines (average); assay type: cell-based, human
Method: (§1) (B) Similarly, compounds of the invention were tested for their ability to kill CEM WT, CEM AB9228, MOLT-4, Jurkat, NALL-1, WI-L2, K562, and HL-60 cells.

proliferating cells = test: Ability of further compounds to kill proliferating cells (average); assay type: cell-based
Method: as §1
(C) Proceeding as described above, further compounds were tested for their ability to kill proliferating cells.

[2] = average TC50 over various proliferating cell lines, read-out: TC50 (the source's name)
[3] = average TC50, proliferating cells, read-out: TC50 (the source's name)
[4] = Homo sapiens, average TC50 over various proliferating cell lines, read-out: TC50 (the source's name)

| Compound | CC50 (proliferating cells; [3]) [µM] | CC50 [1, 4] [µM] | also measured |
| --- | --- | --- | --- |
| 5,6-dimethoxy-2-(3',5'-dimethyl-4'-phosphonoacetylphenylmethylene)-1-indanone |  |  | CC50 [1, 2]: 0.007 µM |
| 6,7-dimethoxy-2-(4'-(pyridine-N-oxide)phenylmethylene)-1-tetralone |  |  | CC50 [1, 2]: > 50 µM |
| O=C1C(=Cc2cc(Cl)cc(Cl)c2)Cc2ccccc21 [2-(3',5'-dichlorophenylmethylene)-1-indanone] | 30 |  |  |
| O=C1C(=Cc2cc(Cl)cc(Cl)c2)Cc2cc(O)c(O)cc21 [5,6-dihydroxy-2-(3',5'-dichlorophenylmethylene)-1-indanone] |  | 30 |  |
| COc1cc2c(cc1OC)C(=O)C(=Cc1cc(C)ccc1C)C2 [5,6-dimethoxy-2-(2',5'-dimethylphenylmethylene)-1-indanone] | 30.5 | 162 |  |
| COc1cc2c(cc1OC)C(=O)C(=Cc1c(Cl)cc(-c3ccncc3)cc1Cl)C2 [5,6-dimethoxy-2-(2',6'-dichloro-4'-(pyridin-4-yl)phenylmethylene)-1-indanone] |  | 40 |  |
| COc1cc2c(cc1OC)C(=O)C(=Cc1cc(I)cc(I)c1O)C2 [5,6-dimethoxy-2-(2'-hydroxy-3',5'-diiodophenylmethylene)-1-indanone] | 12.5 |  |  |
| COc1cc2c(cc1OC)C(=O)C(=Cc1c(O)cc(I)cc1I)C2 [5,6-dimethoxy-2-(2'-hydroxy-4',6'-diiodophenylmethylene)-1-indanone] |  | 18 |  |
| COc1cc2c(cc1OC)C(=O)C(=Cc1cc([N+](=O)[O-])ccc1O)C2 [5,6-dimethoxy-2-(2'-hydroxy-5'-nitrophenylmethylene)-1-indanone] | 14.5 | 15 |  |
| COc1cc2c(cc1OC)C(=O)C(=Cc1cc(F)cc(F)c1)C2 [5,6-dimethoxy-2-(3',5'-difluorophenylmethylene)-1-indanone (] |  |  | CC50 [1, 2]: 26 µM |
| COc1cc2c(cc1OC)C(=O)C(=Cc1cc(F)cc(F)c1)C2 [5,6-dimethoxy-2-(3',5'-difluorophenylmethylene)-1-indanone] | 19 | 19 |  |
| COc1cc2c(cc1OC)C(=O)C(=CC1(O)CC(OC)CC(OC)C1)C2 (stereo not drawn) [5,6-dimethoxy-2-(3',5'-dimethoxy-1'-hydroxycyclohexylmethylene)-1-indanone] |  | 2 |  |
| COc1cc2c(cc1OC)C(=O)C(=Cc1cc(OC)c(O)c(OC)c1)C2 [5,6-dimethoxy-2-(3',5'-dimethoxy-4'-hydroxyphenylmethylene)-1-indanone] | > 50 | > 50 |  |
| COc1cc2c(cc1OC)C(=O)C(=Cc1cc(C)c(OC(=O)CCC(=O)O)c(C)c1)C2 [5,6-dimethoxy-2-(3',5'-dimethyl-4'-O-succinylphenylmethylene)-1-indanone] |  | 1 |  |
| COc1cc2c(cc1OC)C(=O)C(=Cc1cc(C)c(OC(C)=O)c(C)c1)C2 [5,6-dimethoxy-2-(3',5'-dimethyl-4'-acetoxyphenylmethylene)-1-indanone] | 0.4 |  |  |
| COc1cc2c(cc1OC)C(=O)/C(=C/c1cc(C)c(O)c(C)c1)C2 [5,6-dimethoxy-2-(3',5'-dimethyl-4'-hydroxyphenylmethylene)-1-indanone] |  |  | CC50 (proliferating cells; read-out: TC50): 0.0065 µM; CC50 ([1]; Homo sapiens, read-out: TC50): 0.017 µM |
| COc1cc2c(cc1OC)C(=O)C(=Cc1cc(C)c([N+](=O)[O-])c(C)c1)C2 [5,6-dimethoxy-2-(3',5'-dimethyl-4'-nitrophenylmethylene)-1-indanone] | > 50 |  |  |
| COc1cc2c(cc1OC)C(=O)C(=Cc1cc(C)c(OC(=O)CP(=O)(O)O)c(C)c1)C2 [5,6-dimethoxy-2-(3',5'-dimethyl-4'-phosphonoacetoxyphenylmethylene)-1-indanone] | 11.5 |  |  |
| COc1cc2c(cc1OC)C(=O)C(=Cc1cc(C)c(OC(=O)CCC(=O)O)c(C)c1)C2 [5,6-dimethoxy-2-(3',5'-dimethyl-4'-succinophenylmethylene)-1-indanone] | 0.07 |  |  |
| COc1cc2c(cc1OC)C(=O)C(=Cc1cc(OC(F)(F)F)cc(OC(F)(F)F)c1)C2 [5,6-dimethoxy-2-(3',5'-ditrifluoromethoxyphenylmethylene)-1-indanone] |  | > 100 |  |
| COc1cc2c(cc1OC)C(=O)C(=Cc1cc(C(F)(F)F)cc(C(F)(F)F)c1)C2 [5,6-dimethoxy-2-(3',5'-ditrifluoromethylphenylmethylene)-1-indanone] | > 50 |  |  |
| COc1cc2c(cc1OC)C(=O)C(=Cc1cccc(Cl)c1)C2 [5,6-dimethoxy-2-(3'-chlorophenylmethylene)-1-indanone] | 2.5 | > 50 |  |
| COc1cc2c(c(NC(=O)C=O)c1OC)C(=O)C(=Cc1cc(C)c(O)c(C)c1)C2 [5,6-dimethoxy-7-(NHCOCOH)-2-(3',5'-dimethyl-4'-hydroxyphenylmethylene)-1-indanone] | 0.0015 |  |  |
| COc1cc2c(c(N)c1OC)C(=O)C(=Cc1cc(C)c(O)c(C)c1)C2 [5,6-dimethoxy-7-amino-2-(3',5'-dimethyl-4'-hydroxyphenylmethylene)-1-indanone] | 0.0008 | 0.005 |  |
| COC(=O)C(=O)Nc1c(OC)c(OC)cc2c1C(=O)C(=Cc1cc(C)c(O)c(C)c1)C2 [5,6-dimethoxy-7-methoxalylamino-2-(3',5'-dimethyl-4'-hydroxyphenylmethylene)-1-indanone] | 0.2 |  |  |

| Compound | CC50 (proliferating cells; [3]) [µM] | CC50 [1, 4] [µM] | also measured |
| --- | --- | --- | --- |
| COc1cc2c(c([N+](=O)[O-])c1OC)C(=O)/C(=C/c1cc(C)c(O)c(C)c1)C2 [5,6-dimethoxy-7-nitro-2-(3',5'-dimethyl-4'-hydroxyphenylmethylene)-1-indanone] | > 50 | > 50 |  |
| COc1cc(C=C2Cc3cc(C)c(C)cc3C2=O)cc(OC)c1 [5,6-dimethyl-2-(3',5'-dimethoxyphenylmethylene)-1-indanone] | > 50 |  |  |
| COc1cc(C=C2Cc3cc4c(cc3C2=O)OCO4)cc(OC)c1 [5,6-methylenedioxy-2-(3',5'-dimethoxyphenylmethylene)-1-indanone] |  | > 50 |  |
| COc1cc(C=C2Cc3cc(OC)ccc3C2=O)cc(OC)c1 [5-methoxy-2-(3',5'-dimethoxyphenylmethylene)-1-indanone] | > 50 |  |  |
| O=C1C(=Cc2cccc(O)c2O)CCc2cc(O)c(O)cc21 [6,7-dihydroxy-2-(2',3'-dihydroxyphenylmethylene)-1-tetralone] |  | > 50 |  |
| O=C1C(=Cc2cc(O)c(O)c(O)c2)CCc2cc(O)c(O)cc21 [6,7-dihydroxy-2-(3',4',5'-trihydroxyphenylmethylene)-1-tetralone] |  | 43 |  |
| COc1cc(O)c(C=C2CCc3cc(OC)c(OC)cc3C2=O)c(OC)c1 [6,7-dimethoxy-2-(2',4'-dimethoxy-6'-hydroxyphenylmethylene)-1-tetralone] |  | 10 |  |
| COc1ccc(C=C2CCc3cc(OC)c(OC)cc3C2=O)c(OC)c1 [6,7-dimethoxy-2-(2',4'-dimethoxyphenylmethylene)-1-tetralone] | > 50 |  |  |
| COc1ccc(OC)c(C=C2CCc3cc(OC)c(OC)cc3C2=O)c1 [6,7-dimethoxy-2-(2',5'-dimethoxyphenylmethylene)-1-tetralone] |  | 11 |  |
| COc1cc2c(cc1OC)C(=O)C(=Cc1cc(C)ccc1C)CC2 [6,7-dimethoxy-2-(2',5'-dimethylphenylmethylene)-1-tetralone] |  | 5 |  |
| COc1cc2c(cc1OC)C(=O)C(=Cc1c(OC)cccc1OC)CC2 [6,7-dimethoxy-2-(2',6'-dimethoxyphenylmethylene)-1-tetralone] | > 50 |  |  |
| COc1cc2c(cc1OC)C(=O)C(=Cc1c(C)cccc1C)CC2 [6,7-dimethoxy-2-(2',6'-dimethylphenylmethylene)-1-tetralone] |  | > 50 |  |
| COc1ccccc1C=C1CCc2cc(OC)c(OC)cc2C1=O [6,7-dimethoxy-2-(2'-methoxyphenylmethylene)-1-tetralone] | > 50 |  |  |
| COc1cc2c(cc1OC)C(=O)C(=Cc1cc(OC)c(OC)c(OC)c1)CC2 [6,7-dimethoxy-2-(3',4',5'-trimethoxyphenylmethylene)-1-tetralone] |  | > 50 |  |
| COc1cc2c(cc1OC)C(=O)C(=Cc1cc(Cl)cc(Cl)c1)CC2 [6,7-dimethoxy-2-(3',5'-dichlorophenylmethylene)-1-tetralone] | 7 |  |  |
| COc1cc2c(cc1OC)C(=O)C(=Cc1cc(OC)c(O)c(OC)c1)CC2 [6,7-dimethoxy-2-(3',5'-dimethoxy-4'-hydroxyphenylmethylene)-1-tetralone] | 6 |  |  |
| COc1cc2c(cc1OC)C(=O)C(=Cc1cc(C)cc(C)c1)CC2 [6,7-dimethoxy-2-(3',5'-dimethylphenylmethylene)-1-tetralone] |  | 4 |  |
| COc1cc2c(cc1OC)C(=O)C(=Cc1cccc(Cl)c1)CC2 [6,7-dimethoxy-2-(3'-chlorophenylmethylene)-1-tetralone] | 9 |  |  |
| COc1cc2c(cc1OC)C(=O)C(=Cc1ccc(O)c(C(=O)O)c1)CC2 [6,7-dimethoxy-2-(3'-hydrocarboxy-4'-hydroxyphenylmethylene)-1-tetralone] |  | > 50 |  |
| COc1cccc(C=C2CCc3cc(OC)c(OC)cc3C2=O)c1 [6,7-dimethoxy-2-(3'-methoxyphenylmethylene)-1-tetralone] | 5 |  |  |
| COc1cc2c(cc1OC)C(=O)C(=Cc1cccc([N+](=O)[O-])c1)CC2 [6,7-dimethoxy-2-(3'-nitrophenylmethylene)-1-tetralone] | 9 |  |  |
| COc1cc2c(cc1OC)C(=O)C(=Cc1ccc(N)cc1)CC2 [6,7-dimethoxy-2-(4'-aminophenylmethylene)-1-tetralone] |  | > 50 |  |
| COc1ccc2c(c1)C(=O)C(=Cc1cc(C)c(O)c(C)c1)C2 [6-methoxy-2-(3',5'-dimethyl-4'-hydroxyphenylmethylene)-1-indanone] |  | > 50 |  |
| COc1cccc2c1C(=O)C(=Cc1cc(C)c(O)c(C)c1)C2 [7-methoxy-2-(3',5'-dimethyl-4'-hydroxyphenylmethylene)-1-indanone] |  | 51 |  |
